Here are results for 15 compounds from US20240174684A1, “INHIBITORS OF cGAS ACTIVITY AS THERAPEUTIC AGENTS” (BELLBROOK LABS, LLC, priority 2021, published 2024).

One series addresses cGAS (Homo sapiens, UniProt Q8N884). The experiment in a line: Transcreener cGAS enzymatic assay (FP). The series is classed as biochemical. The protocol: Structural, biochemical and biophysical analysis and selectivity profiling: Potency and MOA studies, including Mn^2+ sensitivity, were performed using the Transcreener cGAS enzymatic assay, which is manufactured at BellBrook Labs (Fitchburg, Wisconsin, USA). This homogenous cGAS enzymatic assay was developed with fluorescence polarization (FP) and time-resolved Forster resonance energy transfer (TR-FRET) readouts, as described in International Patent Publication WO 2020/142729, incorporated by reference herein in its entirety. Plates are read on a PHERAstar FSX multimode reader (BMG). The compounds of the disclosure were tested for inhibition of cGAS ([…]) using this cGAS enzymatic assay under standard conditions (100 μM ATP and GTP, 62.5 nM bp ISD, 60 minute reactions), high ATP and GTP (1 mM) to mimic physiological conditions, in the presence of 200 μM MnCl2, and with mouse cGAS under standard conditions.
The IC50 values for FP under standard and under physiological conditions were determined for several exemplary compounds of the invention. The relative activities for FP Standard IC50 are shown in Table 2 below, where A represents <50 nM; B represents 50-100 nM; C represents 100-200 nM; D represents 200 nM-1μM; and E represents 1-10 μM. For the relative activities for FP Physiological IC50, A′ represents <200 nM; B′ represents 200-500 nM; C′ represents 500 nM-1μM; D′ represents 1-5 μM; and E′ represents >5 μM.

Series [1] deals with IFNβ production in THP-1 cells. The experiment in a line: IFNβ ELISA in THP-1 cells. The series is classed as cell-based, human. The conditions noted are these: Homo sapiens; THP-1 cells. An excerpt: Cellular assays: The human monocyte cell line THP-1 and human primary PBMCs were used to evaluate the cellular activity of compounds with good biochemical potency. These cells produce a robust cGAS/STING-dependent type I IFN response when stimulated with dsDNA and other pathogen-associated molecular patterns, which was detected using a standard ELISA for IFNβ (R&D Systems). The TBK1 inhibitor, BX-795, which acts downstream of cGAS/STING, was used as a probe.
CETSA was also used to confirm that the compounds are binding to cGAS in cells; THP-1 cells are used for this analysis. Compounds were tested in dose response mode by incubating with cells for 1.5 hours at 37° C., followed by pelleting and re-suspending in PBS, heating to 51.5° C. for 3 min and cooling to room temp. Cells were then lysed, debris, including denatured cGAS, was pelleted and the supernatant was analyzed for soluble cGAS by Western Blot using anti-cGAS primary Ab (Cell Signaling). Band intensity was analyzed using Image J software. Stimulation with cGAMP directly activates STING, circumventing cGAS; this was used to determine if compounds had effects on downstream components of cGAS/STING signaling. The IFN-6 ELISA was used as the primary measure of cellular potency and selectivity (Table 3) and used the reporter gene assays for assessing off-target activity with other pattern recognition receptors.
The ICso values for IFNB ELISA stimulated with THP-1, PBMC, DNA, and cGAMP were determined for several exemplary compounds of the invention, and are provided in Table 3 where A represents <1 μM; B represents 1-2.5 μM; C represents 2.5-10 μM; D represents 10-20 μM; and E represents >20 μM.
(An ELISA detects its analyte on a solid surface through an enzyme-linked reagent.)

The test system of series [2] is MDCK cells expressing human MDR1 (P-glycoprotein). Put plainly: MDCK-MDR1 permeability A→B. It is filed as in vitro ADME, Canine. The procedure: ADME studies: Compound A and the compounds of the disclosure were tested for aqueous solubility (KSOL), metabolic stability (human and mouse […]) and permeability (Caco-2 and/or MDR1-MDCK cells) to provide an initial indication of oral bioavailability.
The favorable physicochemical properties are reflected in promising results in in vitro ADME tests. […] Metabolic stability, which was routinely measured with mouse and human hepatocytes, is outstanding, with t, greater than 2 hours for all of the compounds of the disclosure in which it has been measured. Cell permeability was measured using MDCK cells expressing human MDR1 (P-glycoprotein) to assess passive permeability as well as active transport out of the cell. […] Numerous compounds in Table 1 meet these permeability criteria, which is consistent with their design for TPSA <140 Å^2 and increased lipophilicity.
The MDCK-MDR1 permeability A ->B is shown in Table 2 below, where A represents 5-10 cm/s×10^−6; B represents 1-5 cm/s×10^−6; and C represents <1 cm/ss×10^−6. The metabolic stability half time, in both mouse and human hepatocytes, is also shown in Table 2 below, where A′ represents 100-200 minutes; B′ represents 200-300 minutes; and C′ represents >300 minutes.

[3] abbreviates: high ATP and GTP (1 mM) to mimic physiological conditions, read-out: IC50 FP Physiological.
[4] abbreviates: standard conditions: 100 μM ATP and GTP, 62.5 nM bp ISD, 60 minute reactions, read-out: IC50 FP Standard.

A word on the IC50: it is the concentration that gives 50% inhibition.

Read-outs that look alike come from different tables or passages of the source.

cGAS, sequence (Q8N884 whole entry): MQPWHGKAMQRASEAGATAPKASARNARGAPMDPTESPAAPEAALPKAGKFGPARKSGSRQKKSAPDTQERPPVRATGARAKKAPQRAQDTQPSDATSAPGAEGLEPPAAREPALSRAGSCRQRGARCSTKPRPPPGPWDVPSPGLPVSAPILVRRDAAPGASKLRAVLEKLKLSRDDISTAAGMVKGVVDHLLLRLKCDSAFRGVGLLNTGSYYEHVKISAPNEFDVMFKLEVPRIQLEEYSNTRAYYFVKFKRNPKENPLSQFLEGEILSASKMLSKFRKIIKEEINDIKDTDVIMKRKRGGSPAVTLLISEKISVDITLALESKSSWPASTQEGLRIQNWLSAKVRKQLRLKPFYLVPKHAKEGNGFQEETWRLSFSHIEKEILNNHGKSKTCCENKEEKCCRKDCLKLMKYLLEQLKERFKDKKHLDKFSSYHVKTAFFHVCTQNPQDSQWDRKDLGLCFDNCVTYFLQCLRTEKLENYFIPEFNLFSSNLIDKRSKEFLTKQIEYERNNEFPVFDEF

For the compound `Cc1nc(N2C[C@@H](CC(=O)Nc3ccc(-c4ccccc4)nn3)C[C@H]2C(=O)O)c2oc3ccccc3c2n1` [Compound 64, (2S,4R)-1-(2-methylbenzofuro[3,2-d]pyrimidin-4-yl)-4-(2-oxo-2-((6-phenylpyridazin-3-yl)amino)ethyl)pyrrolidine-2-carboxylic acid], the IC50 on cGAS (setting [3]) lay in the range of 1 to 5 µM; at cGAS (setting [4]), 0.2 to 1 µM.

Regarding `Cc1nc(N2C[C@@H](CC(=O)Nc3ccc(-c4cccnn4)cc3)C[C@H]2C(=O)O)c2oc3ccccc3c2n1` [Compound 44, (2S,4R)-1-(2-methylbenzofuro[3,2-d]pyrimidin-4-yl)-4-(2-oxo-2-((4-(pyridazin-3-yl)phenyl)amino)ethyl)pyrrolidine-2-carboxylic acid], the IC50 in series [1] was above 20 µM; on cGAS (setting [3]), 0.2 to 0.5 µM; on cGAS (setting [4]), below 0.05 µM. In addition, the “MDCK-MDR Permeability A→B” value in series [2] is “C (C represents <1 cm/ss×10^−6)”.

On to `Cc1nc(N2C[C@@H](CC(=O)Nc3cccc(N4CCC(O)CC4)c3)C[C@H]2C(=O)O)c2oc3ccccc3c2n1` [Compound 58, (2S,4R)-4-(2-((3-(4-hydroxypiperidin-1-yl)phenyl)amino)-2-oxoethyl)-1-(2-methylbenzofuro[3,2-d]pyrimidin-4-yl)pyrrolidine-2-carboxylic acid], for which the IC50 in series [1] was above 20 µM; on cGAS (setting [3]), 1 to 5 µM; on cGAS (setting [4]), 0.2 to 1 µM. In addition, the “MDCK-MDR Permeability A→B” value in series [2] is listed as “C (C represents <1 cm/ss×10^−6)”.

On to `Cc1nc(N2C[C@@H](CC(=O)Nc3ccc(-c4ccnc(O)c4)cc3)C[C@H]2C(=O)O)c2oc3ccccc3c2n1` [Compound 48, (2S,4R)-4-(2-((4-(2-hydroxypyridin-4-yl)phenyl)amino)-2-oxoethyl)-1-(2-methylbenzofuro[3,2-d]pyrimidin-4-yl)pyrrolidine-2-carboxylic acid], for which the IC50 is 0.5 to 1 µM at cGAS (setting [3]) and below 0.05 µM on cGAS (setting [4]).

In the case of `Cc1nc(N2C[C@@H](CC(=O)Nc3ccc(-c4ccc(CO)cc4)cc3)C[C@H]2C(=O)O)c2oc3ccccc3c2n1` [Compound 60, (28.4R)-4-(2-((4′-(hydroxymethyl)-[1,1′-biphenyl]-4-yl)amino)-2-oxoethyl)-1-(2-methylbenzofuro[3,2-d]pyrimidin-4-yl)pyrrolidine-2-carboxylic acid], the IC50 on cGAS (setting [3]) was 0.2 to 0.5 µM; on cGAS (setting [4]), below 0.05 µM.

For `Cc1nc(N2C[C@@H](CC(=O)Nc3ccc(F)cc3)C[C@H]2C(=O)O)c2oc3ccccc3c2n1` [Compound 18, (2S,4R)-4-(2-((4-fluorophenyl)amino)-2-oxoethyl)-1-(2-methylbenzofuro[3,2-d]pyrimidin-4-yl)pyrrolidine-2-carboxylic acid], the IC50 in series [1] is above 20 µM; at cGAS (setting [3]) it was 1 to 5 µM; at cGAS (setting [4]) it was 0.2 to 1 µM. Moreover, the “MDCK-MDR Permeability A→B” value in series [2] is recorded as “C (C represents <1 cm/ss×10^−6)”.

As for `Cc1nc(N2C[C@@H](CC(=O)Nc3ccc(N4CCNCC4)cc3)C[C@H]2C(=O)O)c2oc3ccccc3c2n1` [Compound 8, (2S,4R)-1-(2-methylbenzofuro[3,2-d]pyrimidin-4-yl)-4-(2-oxo-2-((4-(piperazin-1-yl)phenyl)amino)ethyl)pyrrolidine-2-carboxylic acid], the IC50 in series [1] was above 20 µM; at cGAS (setting [3]), above 5 µM; on cGAS (setting [4]), 1 to 10 µM. In series [2], the “MDCK-MDR Permeability A→B” value is listed as “C (C represents <1 cm/ss×10^−6)”.

Regarding `Cc1nc(N2C[C@@H](CC(=O)Nc3cccc(-c4cn[nH]c4)c3)C[C@H]2C(=O)O)c2oc3ccccc3c2n1` [Compound 11, (25,4R)-4-(2-((3-(1H-pyrazol-4-yl)phenyl)amino)-2-oxoethyl)-1-(2-methylbenzofuro[3,2-d]pyrimidin-4-yl)pyrrolidine-2-carboxylic acid], the IC50 was above 20 µM in series [1], 0.2 to 0.5 µM at cGAS (setting [3]) and 0.05 to 0.1 µM at cGAS (setting [4]). Moreover, the “MDCK-MDR Permeability A→B” value in series [2] is recorded as “C (C represents <1 cm/ss×10^−6)”.

With `Cc1nc(N2C[C@@H](CC(=O)Nc3cccc4[nH]ncc34)C[C@H]2C(=O)O)c2oc3ccccc3c2n1` [Compound 28, (28.4R)-4-(2-((1H-indazol-4-yl)amino)-2-oxoethyl)-1-(2-methylbenzofuro[3,2-d]pyrimidin-4-yl)pyrrolidine-2-carboxylic acid], the values for the IC50 (in series [1]; at cGAS (setting [3]); on cGAS (setting [4])) were above 20 µM, 1 to 5 µM and 0.2 to 1 µM, respectively. In addition, the “MDCK-MDR Permeability A→B” value in series [2] is listed as “C (C represents <1 cm/ss×10^−6)”.

In the case of `Cc1nc(N2C[C@@H](CC(=O)Nc3ccc(-c4cccc(CO)c4)cc3)C[C@H]2C(=O)O)c2oc3ccccc3c2n1` [Compound 59, (2S,4R)-4-(2-((3′-(hydroxymethyl)-[1,1′-biphenyl]-4-yl)amino)-2-oxoethyl)-1-(2-methylbenzofuro[3,2-d]pyrimidin-4-yl)pyrrolidine-2-carboxylic acid], the IC50 on cGAS (setting [3]) is 0.5 to 1 µM; at cGAS (setting [4]) it was below 0.05 µM.

Take `Cc1nc(N2C[C@@H](CC(=O)Nc3cnc(-c4ccccc4)nc3)C[C@H]2C(=O)O)c2oc3ccccc3c2n1` [Compound 65, (2S,4R)-1-(2-methylbenzofuro[3,2-d]pyrimidin-4-yl)-4-(2-oxo-2-((2-phenylpyrimidin-5-yl)amino)ethyl)pyrrolidine-2-carboxylic acid]: the IC50 on cGAS (setting [3]) fell in the range of 0.5 to 1 µM; at cGAS (setting [4]) it was 0.05 to 0.1 µM.

As to `Cc1nc(N2C[C@@H](CC(=O)Nc3ccc(N4CCOC4=O)cc3)C[C@H]2C(=O)O)c2oc3ccccc3c2n1` [Compound 52, (2S,4R)-1-(2-methylbenzofuro[3,2-d]pyrimidin-4-yl)-4-(2-oxo-2-((4-(2-oxooxazolidin-3-yl)phenyl)amino)ethyl)pyrrolidine-2-carboxylic acid], the IC50 was in the range of 1 to 5 µM at cGAS (setting [3]) and 0.1 to 0.2 µM on cGAS (setting [4]).

In the case of `Cc1nc(N2C[C@@H](CC(=O)Nc3cccc(-c4c[nH]cn4)c3)C[C@H]2C(=O)O)c2oc3ccccc3c2n1` [Compound 49, (28,4R)-4-(2-((3-(1H-imidazol-4-yl)phenyl)amino)-2-oxoethyl)-1-(2-methylbenzofuro[3,2-d]pyrimidin-4-yl)pyrrolidine-2-carboxylic acid], the IC50 in series [1] is above 20 µM; on cGAS (setting [3]) it was 0.5 to 1 µM; at cGAS (setting [4]), 0.1 to 0.2 µM.

As to `Cc1nc(N2C[C@@H](CC(=O)Nc3ccc(-c4ccc(O)nc4)cc3)C[C@H]2C(=O)O)c2oc3ccccc3c2n1` [Compound 47, (28.4R)-4-(2-((4-(6-hydroxypyridin-3-yl)phenyl)amino)-2-oxoethyl)-1-(2-methylbenzofuro[3,2-d]pyrimidin-4-yl)pyrrolidine-2-carboxylic acid], the IC50 at cGAS (setting [3]) was in the range of 1 to 5 µM; at cGAS (setting [4]) it was 0.1 to 0.2 µM.

In the case of `Cc1nc(N2C[C@@H](CC(=O)Nc3ccc(N4CCC(O)CC4)cc3)C[C@H]2C(=O)O)c2oc3ccccc3c2n1` [Compound 53, (2S,4R)-4-(2-((4-(4-hydroxypiperidin-1-yl)phenyl)amino)-2-oxoethyl)-1-(2-methylbenzofuro[3,2-d]pyrimidin-4-yl)pyrrolidine-2-carboxylic acid], the values for the IC50 (in series [1]; at cGAS (setting [3]); at cGAS (setting [4])) were above 20 µM, 1 to 5 µM and 0.2 to 1 µM, respectively.
